The values below come from publication PMC2702710 (The Journal of organic chemistry, 2009).

Experiment [1] concerns the target T1, Icmt (Homo sapiens, UniProt O60725). The experiment in a line: Vapor diffusion assay. The class given is biochemical. As to conditions: for IC50: read-out: Human Icmt IC50, 25 μM AFC, 20 μM 14C-SAM, 30 min at 30°C.
Experiment [2] has as its target T1, Icmt. The experiment in a line: Icmt scintillation proximity assay. The class given is biochemical. The following applies: initial SPA screen, 50 μM. Background: SPA uses beads or plates that emit light when radiolabelled molecules are held near them.
Experiment [3] deals with T1, Icmt. Kind of experiment: Preliminary screen for Icmt substrate activity. The class given is biochemical.
The next experiment deals with cancer cells. The following applies: cited from earlier work.

T1 sequence (O60725 whole entry, the tested form may be a part): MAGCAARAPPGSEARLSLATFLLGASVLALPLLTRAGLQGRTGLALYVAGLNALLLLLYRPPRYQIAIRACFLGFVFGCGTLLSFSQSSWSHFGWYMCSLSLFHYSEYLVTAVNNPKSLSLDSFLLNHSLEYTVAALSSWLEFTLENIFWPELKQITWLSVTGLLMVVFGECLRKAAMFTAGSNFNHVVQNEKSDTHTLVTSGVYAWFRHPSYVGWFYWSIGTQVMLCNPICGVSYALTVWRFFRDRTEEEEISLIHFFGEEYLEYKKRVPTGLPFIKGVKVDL

In the case of `CC(C)=CCC/C(C)=C/CC/C(C)=C/CSC[C@H](NC(=O)CC12CC3CC(CC(C3)C1)C2)C(=O)O` [4a, N-1-adamantylacetylcarbonyl-L-cysteine[S-(2E,6E)-3,7,11-trimethyldodeca-2,6,10-trienyl]-OH], the half-inhibitory concentration (IC50) (as a rule, the concentration needed to halve the response being measured) on Icmt [1] (VDA) worked out at 18.8 µM.
On the same count and under the same terms, in the case of `CC(C)=CCC/C(C)=C/CC/C(C)=C/CSC[C@H](NC(=O)C12CC3CC(CC1C3)C2)C(=O)O` [4b, N-3-noradamantanecarbonyl-L-cysteine[S-(2E,6E)-3,7,11-trimethyldodeca-2,6,10-trienyl]-OH] it was 16.7 µM.
Take `CC(C)=CCC/C(C)=C/CC/C(C)=C/CSC[C@H](NC(=O)C[C@H]1C[C@H]2CCC1C2)C(=O)O` [4c, N-2-((2R,4S)-bicyclo[2.2.1]heptan-2-yl)acetyl-L-cysteine[S-(2E,6E)-3,7,11-trimethyldodeca-2,6,10-trienyl]-OH]: the “activity in the SPA” value at Icmt [2] is “inactive”.
As for `CCCCCC12CCC(C(=O)N[C@@H](CSC/C=C(\C)CC/C=C(\C)CCC=C(C)C)C(=O)O)(CC1)CC2` [4d, N-4-pentylbicyclo[2.2.2]octane-1-carbonyl-L-cysteine[S-(2E,6E)-3,7,11-trimethyldodeca-2,6,10-trienyl]-OH], the IC50 at Icmt [1] (VDA) was determined as 16.7 µM.
As to `CC(C)=CCC/C(C)=C/CC/C(C)=C/CSC[C@H](NC(=O)[C@]12CCC(CC1=O)C2(C)C)C(=O)O` [4e, N-(1S)-7,7-dimethyl-2-oxobicyclo[2.2.1]heptane-1-carbonyl-L-cysteine[S-(2E,6E)-3,7,11-trimethyldodeca-2,6,10-trienyl]-OH], on Icmt [1] (VDA), the IC50 was 15.6 µM.
Same read-out and setting: in the case of `CC(C)=CCC/C(C)=C/CC/C(C)=C/CSC[C@H](NC(=O)c1ccccc1-c1ccccc1)C(=O)O` [4f, N-2-phenylbenzoyl-L-cysteine[S-(2E,6E)-3,7,11-trimethyldodeca-2,6,10-trienyl]-OH] it was 12.1 µM.
Turning to `CC(C)=CCC/C(C)=C/CC/C(C)=C/CSC[C@H](NC(=O)Cc1cccc2ccccc12)C(=O)O` [4g, N-1-napthylacetylcarbonyl-L-cysteine[S-(2E,6E)-3,7,11-trimethyldodeca-2,6,10-trienyl]-OH], the “activity in the SPA” value on Icmt [2] is “inactive”.
Take `CC(C)=CCC/C(C)=C/CC/C(C)=C/CSC[C@H](NC(=O)CO[C@@H]1C[C@H](C)CC[C@H]1C(C)C)C(=O)O` [4h, N-2-((1R,2S,5R)-2-isopropyl-5-methylcyclohexyloxy)acetyl-L-cysteine[S-(2E,6E)-3,7,11-trimethyldodeca-2,6,10-trienyl]-OH]: the IC50 at Icmt [1] (VDA) amounted to 22.9 µM.
Take `CCCCCCCCC(=O)N[C@@H](CSC/C=C(\C)CC/C=C(\C)CCC=C(C)C)C(=O)O` [4i, N-octylcarbonyl-L-cysteine[S-(2E,6E)-3,7,11-trimethyldodeca-2,6,10-trienyl]-OH]: the “activity in the SPA” value on Icmt [2] is “inactive”.
As for `CC(C)=CCC/C(C)=C/CC/C(C)=C/CSC[C@H](NC(=O)c1ccccc1Oc1ccccc1)C(=O)O` [5e, N-(2-oxyphenyl)benzoyl-L-cysteine[S-(2E,6E)-3,7,11-trimethyldodeca-2,6,10-trienyl]-OH], the “inhibition of Icmt (methylation of AFC)” value against Icmt [1] (VDA, at a concentration of 10 μM) is given as ~80%. Further, the half-inhibitory concentration (IC50) on Icmt [1] (VDA) came out at 4.3 µM.
In the case of `CC(C)=CCC/C(C)=C/CC/C(C)=C/CSC[C@H](NC(=O)CN1C(=O)OC[C@@H]1c1ccccc1)C(=O)O` [5f, N-2-((S)-4-phenyl-2-oxo-oxazolidin-3-yl)acetyl-L-cysteine[S-(2E,6E)-3,7,11-trimethyldodeca-2,6,10-trienyl]-OH], at Icmt [3], the Icmt substrate activity entry is recorded as “more efficient Icmt substrates than the prototypical N-acetylfarnesylcysteine”.
On to `CC(C)=CCC/C(C)=C/CC/C(C)=C/CSC[C@H](NC(=O)CCS(=O)(=O)c1ccccc1)C(=O)O` [5l, N-3-(phenylsulfonyl)propanoyl-L-cysteine[S-(2E,6E)-3,7,11-trimethyldodeca-2,6,10-trienyl]-OH], for which the Icmt substrate activity entry at Icmt [3] is “more efficient Icmt substrates than the prototypical N-acetylfarnesylcysteine”.
On the same count and under the same terms, to `CC(C)=CCC(=CCSC[C@H](NC(=O)c1ccccc1Oc1ccccc1)C(=O)O)CCc1ccc(-c2ccccc2)cc1` [compound 7, N-2-Phenoxybenzoyl-S-3-(3-methyl-but-2-enyl)-5-(4-biphenyl)pent-2-enyl-L-cysteine] belongs “no substrate activity”.
In the case of `CCCCCCCCn1cc(CC(N)=O)c2cc(-c3cccc(C)c3)ccc21` [cysmethynil], in the experiment with cancer cells, the “activity against cancer cells” value is “exhibits activity against cancer cells”.
Consider “N-2-(aminophenyl)benzoyl-L-cysteine[S-(2E,6E)-3,7,11-trimethyldodeca-2,6,10-trienyl]-OH [5h]”, for which the “Icmt inhibitory potency (in words)” value on Icmt [1] is on record as “potent analog”.
